Experiments:
[1] = test system: T and B cells in cannulated salivary glands; experiment: FACS analysis of lymphocyte profile in salivary glands, inducible murine model of ectopic lymphoid tissue formation (Sjögren's syndrome model); type: in vivo, mice (C57BL/6); conditions: for number of T and B cells in cannulated salivary glands: day 15 post-cannulation, vs vehicle
Protocol: N-{(R)-1-[8-Chloro-2-(1-oxypyridin-3-yl)quinolin-3-yl]-2,2,2-trifluoroethyl}-pyrido[3,2-d]pyrimidin-4-ylamine [hereinafter referred to as “Compound (A)”] was investigated in vivo in an inducible model of ectopic lymphoneogenesis in murine salivary glands that mimics Sjögren's syndrome. The results obtained are depicted in the accompanying drawings, in which:
(§1) Compound (A) was assessed in the in vivo murine model of inducible ectopic lymphoid tissue formation described by M. Bombardieri et al. in J. Immunol., 2012, 189, 3767-3776, which is a recognised animal model of Sjögren's syndrome.
(§2) Briefly, wild type (C57BL/6) mice were given replication-defective adenovirus 5 (AdV5) (10^8 p.f.u.) via retrograde cannulation of submandibular gland excretory ducts and sacrificed at specific time points post-cannulation. Compound (A), or vehicle control, was administered by gavage daily both prophylactically and therapeutically, starting at either day 0 or day 3 post-cannulation respectively. In order to assess immune cell status in isolated murine salivary glands, flow cytometry on single cell suspensions and quantitative real time PCR were used to evaluate protein and mRNA expression in the samples.
Replication-defective AdV5-infused salivary glands from mice dosed with either Compound (A) or vehicle were isolated from culled mice at different time points. Glands were dissected and placed in RPMI-1640 (with 2% FCS) (1 mL) on ice. Once all salivary glands were collected, RPMI-1640 was removed and replaced with enzyme mix (RMPI with 2% FCS, 0.8 mg/mL Dispase, 0.2 mg/mL Collagenase P, and 0.1 mg/mL DNase I) (2 mL). Salivary glands were cut into small pieces and tubes were incubated at 37° C. in a water bath, with magnetic stirrers. After 20 minutes, salivary gland fragments were very gently pipetted, using a 1 mL pipette, to disrupt the tissue further and release most cells. The mixture was replaced in the water bath and large fragments were allowed to settle for 30 s, after which time the enzyme mix was removed. […] Cells were filtered through 70 μm nylon mesh and counted using a haemocytometer. […]

[2] = test system: TLO (tertiary lymphoid organ) associated genes; experiment: Quantitative RT-PCR of TLO associated genes in salivary glands, inducible murine model of ectopic lymphoid tissue formation (Sjögren's syndrome model); type: in vivo, mice (C57BL/6)
Protocol: Quantitative RT-PCR analysis of mRNA transcripts coding for indicated genes, normalised to housekeeping gene. The relative expression values presented as RQ were calibrated with day 0 post-cannulation salivary gland values.
as §1, §2

[O-][n+]1cccc(-c2nc3c(Cl)cccc3cc2[C@@H](Nc2ncnc3cccnc23)C(F)(F)F)c1 [Compound (A), N-{(R)-1-[8-Chloro-2-(1-oxypyridin-3-yl)quinolin-3-yl]-2,2,2-trifluoroethyl}-pyrido[3,2-d]pyrimidin-4-ylamine]
disaggregation of the inflammatory foci and resolution of salivary gland inflammation ([1]; dosed either prophylactically or therapeutically, overall conclusion from the model): effective | number of T and B cells in cannulated salivary glands ([1]; treated prophylactically from day 0, by gavage daily, flow cytometry (FIG. 1)): significant decrease | number of T and B cells in cannulated salivary glands ([1]; treated therapeutically from day 3 post-cannulation, by gavage daily, flow cytometry (FIG. 2)): significant decrease | gene expression profile of TLO associated genes ([2]; treated prophylactically from day 0, day 15 post-cannulation, vs vehicle (FIGS. 3 & 4)): significantly inhibited | gene expression profile of TLO associated genes ([2]; treated therapeutically from day 3 post-cannulation, day 15 post-cannulation, vs vehicle (FIG. 4)): decrease was conserved
